Where “and” joins values, the source holds several entries; their conditions need not be identical. Equal entries are not always repeated.

Data set [1] is described as follows: Dispersion and stability in water. It is filed as physicochemical. The conditions noted are these: added to water. The source says:
Based on the chemical structure, a-tocopherol constitutes 35.6% or one-third of the PTS molecule (Borowy-Borowski et al., 2004).

A further data set concerns PD patients. The conditions noted are these: clinical trials in humans; cited from earlier work.
Another data set has as its system striatal dopamine. The data set can be described thus: Striatal dopamine content in MPTP-treated mice. On the procedure:
(§1) To induce the dopaminergic neurodegeneration, male C57BL/6 mice were acclimatized to the new environment for 7 days before the start of the experiment. Animals were randomly divided into experimental groups and given 5 daily injections of MPTP (25 mg/kg/injection). Control mice were injected with saline. On days 5, 8, 14, 28, and 45 after the MPTP injections, mice were sacrificed and brain tissue was collected for immunohistochemistry, stereology, and biochemical analyses. Brains were fixed and immunostained with rabbit polyclonal anti-tyrosine hydroxylase antibody (brown) and counterstained with cresyl violet (blue) for anatomic reference. TH-positive cells were counted using an unbiased stereology method and cell survival was plotted as percentage of control.
(§2) Mice were acclimatized for 7 days before the start of the experiment and were randomly divided into 4 experimental groups (I-IV). Control group I was injected with saline and groups II-IV with MPTP (5×25 mg/kg). Mice in groups I and II were drinking regular water throughout the duration of the experiment. […] At the conclusion of the experiment (D28), all mice were sacrificed and brains were collected for immunohistochemistry, stereology, and biochemistry. Brains were fixed and immunostained with rabbit polyclonal anti-tyrosine hydroxylase antibody and counterstained with cresyl violet. Images were captured on an Olympus microscope equipped with Microcast 3CCD 1080p HD color camera.

Another data set deals with MPTP-treated mice. In words: Beam walk test (faults) in MPTP-treated mice. The conditions noted are these: MPTP alone (group II), D10.
The subject of data set [2] is TH-positive neurons in SNpc. The data set can be described thus: MPTP-induced neurodegeneration in mice: stereological count of TH-positive neurons in SNpc. The method, then: as §1
Mice were acclimatized for 7 days before the start of the experiment and were randomly divided into 3 experimental groups (I-III). Groups I and II were given regular water throughout the duration of the experiment. […] Groups II and III received 5 daily intraperitoneal injections of MPTP (25 mg/kg/injection) whereas, group I was injected with saline. At the conclusion of the experiment on D28, all animals were sacrificed and brain tissue was collected for immunohistochemistry, sterology, and Western blot.
Mice were acclimatized to the new environment for 7 days before the start of the experiment and were randomly divided into 3 experimental groups (I-III). Control group I was injected with saline and groups II and III received 5 daily MPTP injections (25 mg/kg/injection). […] The supplementation continued until the conclusion of the experiment on D28.
At the conclusion of the experiment on day 28 (D28), all mice were sacrificed and brains were collected for immunohistochemistry and stereology. Brains were fixed and immunostained with rabbit polyclonal anti-tyrosine hydroxylase antibody (brown) and counterstained with cresyl violet (blue) for anatomic reference. Images were captured on an Olympus microscope equipped with Microcast 3CCD 1080p HD color camera system.
as §2
Mice were acclimatized to the new environment and were randomly divided into 4 experimental groups (I, II, V, and VI).

For another data set, the system named is rats exposed to PQ. The data set can be described thus: Horizontal beam-walking test (leg slips) in PQ-treated rats. The conditions noted are these: PQ alone (PQ3), 1st test phase, p<0.05. It is filed as in vivo, rat. The method, then: Deficiency in motor function is a hallmark of PD. Motor skills of the rats treated in Example 2 were assessed using the beam walk test. All rats were assessed for performance on a horizontal beam-walking test for motor skills/motor deficits as measured by leg slips. The aluminium beam was 1.68 metres in length, 2 centimetres in width and 0.75 metres from the ground. A mirror was placed behind the beam, measuring 1.78 metres in length and 0.3 metres in height. Four weeks after the last injection, rats underwent one trial per day for four consecutive days (one training trial and three test trials). Eight weeks after the last injection another three test trials were performed (one trial per day). In the training trial, rats ran down the beam to the holding cage on a flat platform three times, each time with different distances between the holding cage and starting position. The first position was a quarter of the beam length, the second was half, and the last was the entire distance of the beam. […]
Rats received a small slice of apple in the holding cage located on a table at the end of the beam. […] The test trials were recorded using a standard video camera, located 2 metres perpendicular to the beam. The number of hind leg slips made from either leg during each test trial was later noted from viewing the recorded video clips. […]

Another data set concerns TH-positive neurons. The data set can be described thus: PQ-induced neurodegeneration in rats: stereological count of TH-positive neurons in midbrain sections. It is filed as in vivo, Long Evans Hooded rats. As to conditions: for total number of TH positive neurons: mean ± SD. The method, then:
Long Evans Hooded rats were given 5 intraperitoneal injections of PQ at a dose of 10 mg/kg body weight/injection dissolved in phosphate buffered saline (PBS), one injection every five days over a period of 20 days. Control rats received intraperitoneal injections of PBS alone. Brain tissue was examined immediately after the last PQ injection and, subsequently, 4 weeks and 8 weeks later. […] Fresh drinking solutions were provided every second day. At the conclusion of experimental treatments, rats were perfused with Tyrodes buffer containing heparin, the tissues were fixed with 10% formalin, and the brains extracted and stored in the 10% formalin until processing for immunohistochemistry. Animals were sacrificed at different time points for up to 8 weeks post-PQ exposure. Midbrain sections were prepared, immunostained with anti-tyrosine hydroxylase antibody and TH-positive neurons were counted using a stereologer in an unbiased manner.
The Ubisol-Q10 intervention was applied after the completion of PQ injections described above. By this time, neurodegenerative processes in the brain had already begun. […] This treatment began when nearly 18% of SN neurons were already lost (PQ1 group), but the question was whether the remaining vulnerable neurons could be saved. The midbrain sections were immunostained with anti-TH antibodies, and the stained neurons were counted using a stereologer in an unbiased manner.
There was also significant neuroprotection in the rats that received the Ubisol-Q10 supplemented drinking water for eight weeks post injections.

The conditions of data set [3]: vitamin E alone; cited from earlier work.

As for `COC1=C(OC)C(=O)C(CC=C(C)CCC=C(C)CCC=C(C)CCC=C(C)CCC=C(C)CCC=C(C)CCC=C(C)CCC=C(C)CCC=C(C)CCC=C(C)C)=C(C)C1=O` [CoQ10, 2,3-dimethoxy, 5-methyl, 6-polyisoprene para-benzoquinone], the behaviour in water result in data set [1] is “floats on the surface as insoluble material”. Further, the “clinical benefit against PD” value with PD patients is given as “no clinical benefit”.
With `CN1CC=C(c2ccccc2)CC1` [MPTP, 1-methyl-4-phenyl-1,2,3,6-tetrahydropyridine], in the data set on striatal dopamine (MPTP alone (group II), by D28), the “striatal dopamine level reduced to” value is 50%. This compound had a striatal dopamine level with striatal dopamine (MPTP alone, D28 (Table 7)) of 15.1 ± 2.2. Moreover, the “decrease of striatal dopamine content” value in the data set on striatal dopamine (MPTP alone, by day 28) was around 50%. In addition, the “number of faults on beam walk, average” value with MPTP-treated mice is on record as around 7 faults. Besides, the “loss of TH-positive neurons” value in data set [2] (MPTP alone (5 x 25 mg/kg i.p.), day 28) is 51.6% and 50%. In addition, in data set [2] (MPTP alone (Table 9; control = 100)), the “number of tyrosine hydroxylase-positive neurons, mean” value is recorded as 66. Also, in data set [2] (MPTP alone, D28 (Table 5)), the “surviving TH neurons (percentage of control)” value is reported as 50.3 ± 7.3%. The “survival of TH-positive neurons” value in data set [2] (MPTP alone, day 45) is reported as 50%. The “number of TH-positive neurons in SNpc” value in data set [2] (MPTP alone, regular water, D28 (Table 6)) was 3281 ± 291 and 3320 ± 700. For the same compound, the “number of TH positive neurons in SNpc” value in data set [2] (MPTP alone, regular water, D56) amounted to 4192 ± 295.
For `C[n+]1ccc(-c2cc[n+](C)cc2)cc1` [PQ, paraquat], the “number of leg slips versus the other three groups” value in the data set on rats exposed to PQ is “significantly greater”. For the same compound, the “total number of TH positive neurons” value with TH-positive neurons (PQ alone (5 x 10 mg/kg i.p.), 0 weeks after last PQ injection (PQ1)) was 8722 ± 3559; in the data set with TH-positive neurons (PQ alone, regular water, 4 weeks after PQ injections (PQ2)), 6006 ± 1928 and 6227 ± 1682; in the data set on TH-positive neurons (PQ alone, regular water, 8 weeks after PQ injections (PQ3)), 5114 ± 1562 and 4661 ± 1097. Further, in the data set on TH-positive neurons (PQ alone, during the PQ injection period (PQ1)), the “loss of DA (TH-positive) neurons versus control” value was ~18% and ~15%.
As to `Cc1c(C)c2c(c(C)c1O)CC[C@@](C)(CCC[C@H](C)CCC[C@H](C)CCCC(C)C)O2` [vitamin E, α-tocopherol], in data set [3], the effect on neuroprotection entry is “did not have a significant effect”.
For “polyoxyethanyl-cholesteryl sebacate [PCS]”, the “number of tyrosine hydroxylase-positive neurons, mean” value in data set [2] (in drinking water from 2 weeks before to 3 weeks after MPTP injections (Table 9; control = 100)) worked out at 58.

These data come from patent US20160228387A1, “SOLUBILIZED FORMULATION OF COQ10 FOR USE IN TREATMENT OF PARKINSON'S DISEASE” (NATIONAL RESEARCH COUNCIL OF CANADA (NRC), priority 2013, published 2016).
